Values quoted from earlier work in patent publication US20140148378A1, “ANTIBACTERIAL PEPTIDES” (THE REGENTS OF THE UNIVERSITY OF CALIFORNIA, priority 2012, published 2014).

Key:
[1] = lactoferricin versus human lactoferrin
[2] = from bioactive peptide databases / literature

Substance	bactericidal effects relative to the parent protein [1]	Known activity of overlapping literature bioactive peptide [2]
lactoferricin	10-100 times	–
YQRRPAIAINNPYVPRTYYANPAVVRPHAQIPQRQYLPNSHPPTVVRRPNLHPSF (listed as Homo sapiens) [SEQ ID NO: 504]	–	Antibacterial
QPTIPFFDPQIPK (listed as Homo sapiens) [SEQ ID NO: 505]	–	Immuno-
QELLLNPTHQYPVTQPLAPVHNPISV (listed as Homo sapiens) [SEQ ID NO: 506]	–	Antibacterial
